We go through two compounds from ChEMBL document CHEMBL1158841, “Neoglycorandomization and chemoenzymatic glycorandomization: two complementary tools for natural product diversification” (J Nat Prod, 2005).

Test [1] is described as follows: Activity of AknS in presence of AknT.
A further test has as its system DU-145. Kind of test: Cytotoxicity against human DU145 cells after 72 hrs by calcein AM assay. Particulars: DU-145, 72 h, pooled result: one value given for 9 cell lines, strains, targets or settings. Type of test: functional, cell-based.

By kcat is commonly meant the number of substrate molecules converted per active site and unit of time at saturation. `CC[C@@]1(O)C[C@H](O[C@H]2C[C@H](N(C)C)[C@H](O[C@H]3C[C@H](O)[C@H](O[C@H]4CCC(=O)[C@H](C)O4)[C@H](C)O3)[C@H](C)O2)c2c(cc3c(c2O)C(=O)c2c(O)cccc2C3=O)[C@H]1C(=O)OC`: the turnover number (kcat) in test [1] is 0.00367 s⁻¹.

Usually IC50 stands for the concentration needed to halve the response being measured. With `C[C@H]1O[C@@H](O[C@H]2[C@@H](O)C[C@H](O[C@H]3[C@@H](O)C[C@H](O[C@H]4CC[C@@]5(C)[C@H](CC[C@@H]6[C@@H]5CC[C@]5(C)[C@@H](C7=CC(=O)OC7)CC[C@]65O)C4)O[C@@H]3C)O[C@@H]2C)C[C@H](O)[C@@H]1O` [DIGITOXIN], in the test on DU-145, the 50% inhibitory concentration (IC50) is 440 nM.
